Reference: PubChem BioAssay (NCI)
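These data come from cells grown in 96-well plates and exposed to compound for 48 hours at five concentrations. Definition used: TGI = concentration required for complete inhibition of growth.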

Experiments:
Test in all cases: DTP human tumour cell line panel, 48 h
ACHN renal = test system: ACHN renal
XF 498 CNS = test system: XF 498 CNS
HCT-116 colon = test system: HCT-116 colon
SF-268 CNS = test system: SF-268 CNS
OVCAR-8 ovarian = test system: OVCAR-8 ovarian
SK-MEL-28 melanoma = test system: SK-MEL-28 melanoma
LXFL 529 NSCLC = test system: LXFL 529 NSCLC
RPMI-8226 leukemia = test system: RPMI-8226 leukemia
K-562 leukemia = test system: K-562 leukemia
HOP-92 NSCLC = test system: HOP-92 NSCLC
UACC-62 melanoma = test system: UACC-62 melanoma
MALME-3M melanoma = test system: MALME-3M melanoma
SW-620 colon = test system: SW-620 colon
NCI-H226 lung = test system: NCI-H226 lung
MOLT-4 leukemia = test system: MOLT-4 leukemia
HOP-62 NSCLC = test system: HOP-62 NSCLC
OVCAR-3 ovarian = test system: OVCAR-3 ovarian
CAKI-1 renal = test system: CAKI-1 renal
COLO 205 colon = test system: COLO 205 colon
SK-MEL-2 melanoma = test system: SK-MEL-2 melanoma
DLD-1 colon = test system: DLD-1 colon
EKVX NSCLC = test system: EKVX NSCLC
IGROV1 ovarian = test system: IGROV1 ovarian
786-0 renal = test system: 786-0 renal
SNB-78 CNS = test system: SNB-78 CNS
RXF-631 renal = test system: RXF-631 renal
OVCAR-4 ovarian = test system: OVCAR-4 ovarian
SNB-75 CNS = test system: SNB-75 CNS
HCT-15 colon = test system: HCT-15 colon
HT29 colon = test system: HT29 colon
A549 NSCLC = test system: A549 NSCLC
NCI-H23 lung = test system: NCI-H23 lung
SF-539 CNS = test system: SF-539 CNS
DMS 273 small cell lung = test system: DMS 273 small cell lung
SNB-19 CNS = test system: SNB-19 CNS
NCI-H460 lung = test system: NCI-H460 lung
CCRF-CEM leukemia = test system: CCRF-CEM leukemia
SF-295 CNS = test system: SF-295 CNS
SK-OV-3 ovarian = test system: SK-OV-3 ovarian
SN12C renal = test system: SN12C renal
LOX IMVI melanoma = test system: LOX IMVI melanoma
UACC-257 melanoma = test system: UACC-257 melanoma
OVCAR-5 ovarian = test system: OVCAR-5 ovarian
NCI-H522 lung = test system: NCI-H522 lung
DMS 114 small cell lung = test system: DMS 114 small cell lung
SK-MEL-5 melanoma = test system: SK-MEL-5 melanoma
M19-MEL melanoma = test system: M19-MEL melanoma
HL-60(TB) leukemia = test system: HL-60(TB) leukemia
UO-31 renal = test system: UO-31 renal
TK-10 renal = test system: TK-10 renal
A498 renal = test system: A498 renal
RXF 393 renal = test system: RXF 393 renal
KM20L2 colon = test system: KM20L2 colon
M14 melanoma = test system: M14 melanoma
SR leukemia = test system: SR leukemia
KM12 colon = test system: KM12 colon
U251 CNS = test system: U251 CNS
HCC-2998 colon = test system: HCC-2998 colon

Measured: TGI

CCOC(=O)c1ccc(N=Cc2ccc(N(CCC#N)CCC#N)cc2)cc1
> 100 µM: ACHN renal | XF 498 CNS | HCT-116 colon | SF-268 CNS | OVCAR-8 ovarian | SK-MEL-28 melanoma | LXFL 529 NSCLC | RPMI-8226 leukemia | K-562 leukemia | HOP-92 NSCLC | UACC-62 melanoma | MALME-3M melanoma | SW-620 colon | NCI-H226 lung | MOLT-4 leukemia | HOP-62 NSCLC | OVCAR-3 ovarian | CAKI-1 renal | COLO 205 colon | SK-MEL-2 melanoma | DLD-1 colon | EKVX NSCLC | IGROV1 ovarian | 786-0 renal | SNB-78 CNS | RXF-631 renal | OVCAR-4 ovarian | SNB-75 CNS | HCT-15 colon | HT29 colon | A549 NSCLC | NCI-H23 lung | SF-539 CNS | DMS 273 small cell lung | SNB-19 CNS | NCI-H460 lung | CCRF-CEM leukemia | SF-295 CNS | SK-OV-3 ovarian | SN12C renal | LOX IMVI melanoma | UACC-257 melanoma | OVCAR-5 ovarian | NCI-H522 lung | DMS 114 small cell lung | SK-MEL-5 melanoma | M19-MEL melanoma | HL-60(TB) leukemia | UO-31 renal | TK-10 renal | A498 renal | RXF 393 renal | KM20L2 colon | M14 melanoma

CCOC(=O)c1ccc(O)cc1
> 100 µM: ACHN renal | XF 498 CNS | HCT-116 colon | SF-268 CNS | SK-MEL-28 melanoma | RPMI-8226 leukemia | K-562 leukemia | SR leukemia | HOP-92 NSCLC | UACC-62 melanoma | MALME-3M melanoma | KM12 colon | SW-620 colon | NCI-H226 lung | MOLT-4 leukemia | HOP-62 NSCLC | CAKI-1 renal | COLO 205 colon | SK-MEL-2 melanoma | DLD-1 colon | EKVX NSCLC | IGROV1 ovarian | 786-0 renal | SNB-78 CNS | RXF-631 renal | OVCAR-4 ovarian | SNB-75 CNS | HCT-15 colon | HT29 colon | A549 NSCLC | NCI-H23 lung | SF-539 CNS | DMS 273 small cell lung | SNB-19 CNS | NCI-H460 lung | CCRF-CEM leukemia | SF-295 CNS | SK-OV-3 ovarian | LOX IMVI melanoma | UACC-257 melanoma | OVCAR-5 ovarian | NCI-H522 lung | DMS 114 small cell lung | M19-MEL melanoma | HL-60(TB) leukemia | UO-31 renal | TK-10 renal | U251 CNS | RXF 393 renal | KM20L2 colon | M14 melanoma | HCC-2998 colon

O=c1[nH]c(=O)n(C2CC(O)C(CO)O2)cc1/C=C/Br (configuration not stated)
> 100 µM: ACHN renal | XF 498 CNS | SF-268 CNS | OVCAR-8 ovarian | SK-MEL-28 melanoma | LXFL 529 NSCLC | K-562 leukemia | SR leukemia | HOP-92 NSCLC | UACC-62 melanoma | MALME-3M melanoma | KM12 colon | SW-620 colon | NCI-H226 lung | MOLT-4 leukemia | HOP-62 NSCLC | CAKI-1 renal | SK-MEL-2 melanoma | DLD-1 colon | EKVX NSCLC | IGROV1 ovarian | 786-0 renal | SNB-78 CNS | RXF-631 renal | OVCAR-4 ovarian | HT29 colon | A549 NSCLC | NCI-H23 lung | SF-539 CNS | DMS 273 small cell lung | SNB-19 CNS | NCI-H460 lung | CCRF-CEM leukemia | SF-295 CNS | SK-OV-3 ovarian | SN12C renal | LOX IMVI melanoma | UACC-257 melanoma | OVCAR-5 ovarian | NCI-H522 lung | DMS 114 small cell lung | SK-MEL-5 melanoma | M19-MEL melanoma | HL-60(TB) leukemia | UO-31 renal | TK-10 renal | A498 renal | U251 CNS | RXF 393 renal | KM20L2 colon | M14 melanoma
